Results from patent publication US20100160228A1, “METHOD FOR INHIBITING OR STIMULATING ANGIOGENESIS IN AN INDIVIDUAL” (VALTION TEKNILLINEN TUTKIMUSKESKUS, priority 2007, published 2010).

Key:
[1] = target: T1, Recombinant, purified TCPTP (Homo sapiens, UniProt P17706); experiment: In vitro phosphatase assay with purified TCPTP protein (diFMUP substrate); type: biochemical; conditions: TAT peptides of D-amino acids, FIG. 4C
T1 construct: made in house
T1 sequence (P17706 1-387 isoform P17706-2): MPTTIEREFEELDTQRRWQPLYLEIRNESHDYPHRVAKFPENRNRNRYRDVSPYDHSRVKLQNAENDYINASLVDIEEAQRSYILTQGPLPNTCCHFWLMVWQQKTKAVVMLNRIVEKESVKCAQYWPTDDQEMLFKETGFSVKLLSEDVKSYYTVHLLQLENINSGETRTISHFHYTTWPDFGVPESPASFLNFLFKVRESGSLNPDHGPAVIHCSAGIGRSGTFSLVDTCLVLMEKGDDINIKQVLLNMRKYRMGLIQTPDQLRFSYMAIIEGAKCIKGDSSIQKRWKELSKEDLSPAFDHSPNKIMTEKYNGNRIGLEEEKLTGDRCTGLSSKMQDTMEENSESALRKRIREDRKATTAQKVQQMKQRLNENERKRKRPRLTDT
Method: (§1) FIG. 4. α1 integrin activates TCPTP and attenuates VEGFR2 signalling. (A) Serum-starved subconfluent HUVEC were treated for 1 h with α1 integrin cytoplasmic tail fusion peptide (α1TAT) or TAT-scramble control fusion peptide (ScrTAT) (both at 200 nM) followed by VEGF-induction (100 ng/ml, 15 min) where indicated. Cell lysates were resolved on SDS-PAGE and immunoblotted for phosphorylated VEGFR2 (or tubulin as a control). (B) HUVEC were treated as in (A) and VEGFR2 kinase activity (mean±SD, n=3) was measured from the cell lysates. **, p<0.01. (C) Recombinant, purified TCPTP was incubated with α1 or α2 cytoplasmic tail peptides (L-amino acids) or with α1 and scrambled TAT peptides (D-amino acids) and analyzed for phosphatase activity (mean±SD, n=3).
Phosphatase and kinase assays. Phosphatase assays were performed as described (8). Briefly, HUVEC were plated to collagen or gelatin coated plates and allowed to adhere for 1 h. TCPTP, SHP2 and control immunocomplexes were isolated from cell lysates, resuspended in the phosphatase assay buffer and assayed for phosphatase activity using 6,8-difluoro-4-methylumbelliferyl phosphate; Molecular Probes) as a substrate in the presence of a serine/threonine phosphatase inhibitor cocktail (Sigma). Thereafter, the antigens from the beads were used for immunoblotting. […]

[2] = system: VEGFR2; experiment: VEGFR2 kinase activity from HUVEC lysates (Kinase-Glo Plus); type: cell-based, human; conditions: FIG. 4B
Method: as §1, with “(A)” for “FIG. 4. α1 integrin activates TCPTP and attenuates VEGFR2 signalling. (A)”
VEGFR2 kinase activity was studied using Kinase-Glo Plus kinase assay kit according to manufacturer's protocol (Promega) with 25 µM ATP. Briefly, HUVEC plated on gelatin were serum-starved overnight, treated with 400 nM α1TAT or ScrTAT or left untreated and stimulated with 100 ng/ml VEGF for 15 min, when indicated. The cells were lysed to ice-cold lysis buffer (1% NP-40, 20 mM Hepes pH 7.4, 150 mM NaCl, 10% glycerol, 2.5 mM EDTA, complete protease inhibitor (Roche) and phosphatase inhibitor coctails I and II (Sigma)). The lysates were incubated in anti-VEGFR2 or control IgG-coated wells with shaking for 2 h and washed 3 times with lysis buffer and 3 times with cold kinase assay buffer (20 mM Hepes pH 8, 0.1 mM Na3VO4, 10 mM MnCl2, 1 mM DTT). Kinase assay was performed for 10 min at +37° C.

[3] = system: VEGFR2; experiment: Immunoblot of phosphorylated VEGFR2 in HUVEC lysates; type: cell-based, human; conditions: for effect on VEGFR2 phosphorylation in confluent cells: confluent HUVEC, FIG. 10A; for effect on VEGFR2 phosphorylation in confluent cells / effect of TAT peptides on VEGFR2 phosphorylation: peptide 200 nM
Method: as §1
FIG. 10. […] (A) Serum-starved HUVEC were plated to confluency on gelatin and treated for 1 h with α1 integrin cytoplasmic tail fusion peptide (α1TAT) or TAT-scramble control fusion peptide (ScrTAT) (both at 200 nM) or not treated, followed by VEGF-induction (15 min) when indicated. Cell lysates were immunoblotted for phosphorylated VEGFR2 (or tubulin as a control). (B) Confluent HUVEC on gelatin were treated with VEGF in the presence or absence of α1TAT or ScrTAT peptide and the number of live cells was detected using WST-1 reagent (mean±SD, n=3). (C) α1TAT treatment has no effect on internalization of VEGFR2 in confluent HUVEC. HUVEC were plated to confluency on gelatin, stimulated or not with the TAT peptides (200 nM) and VEGF, and treated with trypsin on ice. Cells were lysed after inactivation of trypsin and the lysates were immunoblotted for detection of VEGFR2 protected from trypsin (=internalized pool). The intensity of VEGFR2 bands was quantitated using densitometry (a representative experiment out of 3 with similar results is shown).

Sequence: YGRKKRRQRRRLKGWRFKLKPKFKEMK (SEQ ID NO 8) [ScrTAT, reference compound]
- activation of TCPTP phosphatase activity [1]: no effect
- increase of VEGFR2 kinase activity upon VEGF-stimulation ([2]; HUVEC treated with no peptide or with scrambled control TAT peptide): about 10 fold
- effect on VEGFR2 phosphorylation in confluent cells [3]: no effects
- effect of TAT peptides on VEGFR2 phosphorylation ([3]; subconfluent HUVEC, FIG. 4A): induced a clear phosphorylation

Sequence: YGRKKRRQRRRWKLGFFKRPLKKKMEK (SEQ ID NO 3) [α1TAT]
- activation of TCPTP phosphatase activity [1]: very good activator
- kinase activity of VEGFR2 in VEGF-treated HUVEC ([2]; VEGF 100 ng/ml 15 min): completely abolished
- effect on VEGFR2 phosphorylation in confluent cells [3]: no effects
- VEGF-induced autophosphorylation of VEGFR2 at tyrosine 1214 ([3]; subconfluent HUVEC, peptide 200 nM 1 h, VEGF 100 ng/ml 15 min, FIG. 4A): markedly inhibited
- effect of TAT peptides on VEGFR2 phosphorylation ([3]; subconfluent HUVEC, FIG. 4A): effectively attenuated
